“Also recorded” adds a separate entry of the source.
Legend:
[1] = tested on: IIIB strain of HIV-1; test: Anti-HIV effect: protection of MT-4 T lymphocytes from HIV-caused cell death (XTT assay); format: cell-based; conditions: MT-4, HIV-1 IIIB, 100 mcg-1 ng per ml, 5-7 days
Procedure: Viability=100%×[(ODT)-(ODD)]/[(ODM)-(ODD)]
Where ODT is optical density values of culture wells treated with test peptides; ODM optical density of mock-infected cells; ODD light absorbance values of untreated cells dead from exposure to HIV.
The serial ten-fold dilutions (100 mcg-1 ng per ml) of 6 different synthetic peptides representing N-terminal and core region of hCG were tested for their effect on HIV replication (FIG. 1). […] In these experiments the viability of MT4 was determined after 5-7 days of continuous presence of the virus and hCG peptide fragment in the target cell culture.

[2] = tested on: MT-4 cells; conditions: 100 ng/ml and concentrations up to 1,000-fold higher
Procedure: MT-4 T lymphocytes (5×10^4 cells/ml) were seeded in 96well plates and exposed to IIIB strain of HIV-1 (at MOI equal to 100 infectious doses) in the presence of ten-fold, serial dilutions of hCG peptides (range 100 mcg-1 ng per ml). […] The tests were repeated three times with duplicates for each dilution of an individual peptide. All cultures were grown in RPMI-1640/10% FBS medium supplemented witi L-glutamine and penicillin/streptomycin. The culture plates were kept in a humidified incubator with 5% CO2 at 37° C. […] This difference in the survival pattern, indicative of the antiviral activity, was quantitated by tetrazolium salt XTT assay. This assay is based on the rationale that the viability of MT-4 correlates directly with the activity of mitochondrial hydrogenases converting XTT into optically dense formazan dye. […] At the appropriate time 1 mg/ml of XTT (Sigma, St Louis, Mo.) was nixed with 1% w/v phenazine methosulfate (Aldrich, Milwaukee, Wis.) and 20 mcl of the mixture was added to the wells for 4 hours. The optical density of formazan was then determined in a plate reader at 450 nm with reference filter at 620 nm. The proportion of surviving MT-4 cells treated with hCG peptides was calculated as a function of the viability of mock-infected cells in relation to positive control wells containing untreated cells dead from exposure to HIV.

Compound | anti-HIV effect (in words) [1] | toxicity to cells employed in the assay [2]
C100 GGPKDHPLTC110 DD (CGGPKDHPLTCDD) [compound 7] | active; also recorded: restricted effect | 
CC[C@H](C)[C@H](NC(=O)[C@@H]1CCCN1C(=O)[C@@H](NC(=O)[C@H](CC(=O)O)NC(=O)[C@H](CO)NC(=O)[C@@H]1CCCN1C(=O)CNC(=O)[C@@H]1CCCN1C(=O)[C@H](CC(C)C)NC(=O)[C@H](CCCNC(=N)N)NC(=O)[C@H](CO)NC(=O)[C@@H]1CCCN1C(=O)[C@H](CO)NC(=O)[C@@H]1CCCN1C(=O)[C@H](CC(C)C)NC(=O)[C@H](CO)NC(=O)[C@@H]1CCCN1C(=O)[C@@H]1CCCN1C(=O)[C@@H]1CCCN1C(=O)[C@H](C)NC(=O)[C@H](CCCCN)NC(=O)[C@H](CO)NC(=O)[C@H](CO)NC(=O)[C@H](CO)NC(=O)[C@H](CO)NC(=O)[C@H](CC(=O)O)NC(=O)[C@H](CCC(N)=O)NC(=O)[C@H](Cc1ccccc1)NC(=O)[C@H](CCCNC(=N)N)NC(=O)[C@@H]1CCCN1C(=O)[C@H](CC(=O)O)NC(=O)[C@H](CC(=O)O)NC(=O)[C@H](CS)NC(=O)[C@@H](NC(=O)[C@H](CC(C)C)NC(=O)[C@@H]1CCCN1C(=O)[C@@H](N)Cc1c[nH]cn1)[C@@H](C)O)[C@@H](C)O)C(=O)N[C@@H](CC(C)C)C(=O)N1CCC[C@H]1C(=O)N[C@@H](CCC(N)=O)C(=O)O [CTP of hCG] |  | not toxic
K20 EGCPVCITVN30 TT (KEGCPVCITVNTT) [peptide #1] | active at nanogram doses | 

Reference: US6331610A, “Method for treating AIDS and HIV infection using select peptides from the beta subunit of human chorionic gonadotropin” (priority 1997, dated 2001)
